From ChEMBL document CHEMBL1949562, “Triterpenes possessing an unprecedented skeleton isolated from hydrolyzate of total saponins from Gynostemma pentaphyllum” (Eur J Med Chem, 2012)

Columns and labels:
[1] = Cytotoxicity against human U87 cells after 72 hrs by MTT assay; type: functional, cell-based, U-87MG ATCC; conditions: U-87 MG
[2] = Cytotoxicity against human Hep3B cells after 72 hrs by MTT assay; type: functional, cell-based, Hep 3B2
A549 = assay: Cytotoxicity against human A549 cells after 72 hrs by MTT assay; type: functional, cell-based; conditions: A549, 72 h

Row | SMILES | IC50 [1] [µM] | IC50 [2] [µM] | IC50 (A549) [µM]
1 | CC(C)=C[C@H]1C=C([C@H]2CC[C@]3(C)[C@@H]2CC[C@@H]2[C@@]4(C)CC[C@H](O[C@@H]5O[C@H](CO)[C@@H](O)[C@H](O)[C@H]5O)C(C)(C)[C@@H]4CC[C@]23C)C(=O)O1 | > 100 | > 100 | > 100
2 | CC(C)=CCC[C@](C)(O)[C@H]1CC[C@]2(C)[C@@H]1[C@H](O)C[C@@H]1[C@@]3(C)CC[C@H](O)C(C)(C)[C@@H]3CC[C@]12C | 36.7 | 14.7 | –
3 | COc1cc([C@@H]2c3cc4c(cc3[C@@H](O[C@@H]3O[C@@H]5CO[C@@H](C)O[C@H]5[C@H](O)[C@H]3O)[C@H]3COC(=O)[C@H]23)OCO4)cc(OC)c1O [ETOPOSIDE] | 12.4 | 6.7 | 23.8
4 | CC(C)=C1CC=C([C@H]2CC[C@]3(C)[C@@H]2CC[C@@H]2C4=C(CC[C@]23C)C(C)(C)[C@@H]2CC[C@H]4O2)C1=O [GYPENSAPOGENIN A] | > 100 | 44.4 | 71.2
5 | CC(C)=C1CC([C@H]2CC[C@]3(C)[C@@H]2CC[C@@H]2C4=C(CC[C@]23C)C(C)(C)[C@@H]2CC[C@H]4O2)=CC1=O [GYPENSAPOGENIN B] | > 100 | > 100 | > 100
6 | CC(C)=C1CC=C([C@H]2CC[C@]3(C)[C@@H]2CC[C@@H]2[C@@]4(C)CC[C@H](O)C(C)(C)[C@@H]4CC[C@]23C)C1=O [GYPENSAPOGENIN C] | 0.58 | > 100 | 0.11
7 | CC(C)=C[C@H]1C=C([C@H]2CC[C@]3(C)[C@@H]2CC[C@@H]2[C@@]4(C)CC[C@H](O)C(C)(C)[C@@H]4CC[C@]23C)C(=O)O1 [GYPENSAPOGENIN D] | > 100 | > 100 | > 100
